Data on 1 molecule can be found in patent US20070244202A1, “Ampk Activator” (KAO CORPORATION, priority 2004, published 2007).

Molecules are shown by their SMILES.

One assay concerns C57BL/6 male mice. The assay can be described thus: Efficacy of resveratrol in mice fed a high-fat diet for 24 weeks (body, fat and liver weight, blood analysis). In kind it is in vivo, mouse. How it is done:
Seven-week-old C57BL/6 male mice (CLEA Japan, Inc.) were employed, and the animals were divided into three groups, each containing 10 to 15 animals. Twenty-four weeks after initiation of the test, body weight was measured, and blood was collected under anesthesia and non-fasting conditions for measurement of plasma glucose, cholesterol, insulin, and leptin. In addition, visceral fat weight (epididymal fat, retroperitoneal fat, and perirenal fat) and liver weight were measured. In Example 3, resveratrol manufactured by Cayman was employed. [table]

The subject of assay [1] is AMPK (AMP-activated protein kinase). The experiment in a line: AMPK activation evaluated by phosphorylation of AMPK α and β (Western blot) in mouse hepatocyte line Hepa 1-6. It counts as cell-based. The settings on record: Hepa 1-6 cells. How it is done: The AMPK activation effect of resveratrol was evaluated on the basis of phosphorylation of AMPK α and β through the below-described method by use of a mouse hepatocyte line (Hepa 1-6). Mouse hepatocyte cells (Hepa 1-6) were seeded in a 25-cm^2 flask, and cultured in DMEM (+10% FBS, +antibacterial agent) at 37° C. for one to two days. The culture medium was removed when the cells became subconfluent, and the cells were washed with PBS (−), followed by replacement with DMEM (−FBS) and further culturing for one day. After the culture medium was removed, DMEM (−FBS) containing a predetermined amount of resveratrol was added, followed by culturing for 60 minutes. Thereafter, the culture medium was removed, and the cells were washed with PBS (−), followed by addition of 200 μL of a cytolytic solution (10 mmol/L Tris (pH 7.4), 50 mmol/L sodium chloride, 30 mmol/L sodium pyrophosphate, 0.5 mass % Triton X-100, protease inhibitor cocktail (SIGMA P2714), phosphatase inhibitor cocktail-2 (SIGMA P5726)). The resultant cell lysate was collected with a cell scraper. The thus-collected cell lysate was thoroughly homogenized by passing it through a syringe using a 23-G needle (3 times), and then the cell lysate was allowed to stand on ice for 30 minutes. […] After the concentration of the supernatant protein was measured, the protein concentration was regulated to a constant level between samples. […] Thereafter, phospho-AMPK was detected by use of anti-phospho-AMPKα (Thr72) antibody (product of Cell Signaling) or anti-phospho-AMPKβ (Ser108) antibody (product of Cell Signaling) serving as a primary antibody, anti-rabbit-HRP antibody (product of Amersham) serving as a secondary antibody, and phototope-HRP Western Detection System (product of Cell Signaling) serving as a detection reagent. The intensity of the thus-detected band was converted into numerical data (pixels) through image analysis (EDAS 290 image analysis system: KODAK), and the degree of AMPK activation was calculated relative to the control (i.e., group containing no sample), which was taken as 100. […]

Assay [2] has as its system lipid metabolism activity (β-oxidation activity). The experiment in a line: Lipid metabolism activating effect: lipid degradation (β-oxidation) activity of liver and skeletal muscle after oral administration. It counts as in vivo, mouse. How it is done:
Seven-week-old Balb/c male mice were divided into two groups, and saline (control) or resveratrol (200 mg/kg body weight) was orally administered for 10 consecutive days. Thereafter, the liver and skeletal muscle (gastrocnemius muscle+soleus muscle) were collected from each of the animals. Each of the thus-collected liver and skeletal muscle was homogenized in buffer (250 mM sucrose, 1 mM EDTA in 10 mM HEPES (pH 7.2)), and insoluble tissue residues were centrifugally separated, whereby a supernatant was obtained. The thus-obtained supernatant was subjected to measurement of protein content, and the protein content was regulated to a constant level between samples. Each of the resultant samples was employed for measurement of lipid metabolism activity (β-oxidation activity). The supernatant protein (100 μg) was reacted with 0.1 μCi [^14C]-palmitic acid at 37° C. for 20 minutes in 200 μL (final volume) of buffer (50 mM Tris-HCl (pH 8.0), 40 mM NaCl, 2 mM KCl, 2 mM MgCl2, 1 mM DTT, 5 mM ATP, 0.2 mM L-carnitine, 0.2 mM NAD, 0.06 mM FAD, 0.12 mM CoA, 3 mM α-cyclodextrin). The reaction was stopped with 200 μL of 0.6 N perchloric acid, and then unreacted [^14C]-palmitic acid was removed three times with hexane (1 mL). Lipid degradation activity was evaluated through measurement of the radioactivity of the aqueous layer.
Lipid degradation activity was calculated relative to that of the control, which was taken as 100. […] As is clear from the test results, resveratrol is effective for activation of lipid metabolism.

Assay [3] relates to AMPK (AMP-activated protein kinase). The assay can be described thus: AMPK activation evaluated by phosphorylation of AMPK α and β (Western blot) in mouse muscle cell line C2C12. It counts as cell-based. How it is done:
The AMPK activation effect of resveratrol was evaluated on the basis of phosphorylation of AMPK α and β through the below-described method by use of a mouse muscle cell line (C2C12). Mouse muscle cells (C2C12) were seeded in a 25-cm^2 flask, and cultured in DMEM (+10% FBS, +antibacterial agent) at 37° C. for one to two days. The culture medium was removed when the cells reached confluent, and the cells were washed with PBS (−), followed by replacement with DMEM (2 mass % Horse serum) and further culturing for seven to eight days while the culture medium was exchanged every two or three days. Thereafter, the culture medium was removed, and the cells were washed with PBS (−), followed by replacement with DMEM (−FBS) and further culturing for one day. After the culture medium was removed, DMEM (−FBS) containing a predetermined amount of resveratrol was added, followed by culturing for 60 minutes. […] After the concentration of the supernatant protein was measured, the protein concentration was regulated to a constant level between samples. […] Thereafter, phospho-AMPK was detected by use of anti-phospho-AMPKα (Thr72) antibody (product of Cell Signaling) or anti-phospho-AMPKβ (Ser108) antibody (product of Cell Signaling) serving as a primary antibody, anti-rabbit-HRP antibody (product of Amersham) serving as a secondary antibody, and phototope-HRP Western Detection System (product of Cell Signaling) serving as a detection reagent. The intensity of the thus-detected band was converted into numerical data (pixels) through image analysis (EDAS 290 image analysis system: KODAK), and the degree of AMPK activation was calculated relative to the control (i.e., group containing no sample), which was taken as 100. […]
In general terms: A western blot detects proteins with antibodies after separation by electrophoresis.

[4] abbreviates: 0.2% resveratrol in high-fat diet vs high-fat diet, P<0.01.
Where [5] appears, read: 0.2% resveratrol in high-fat diet vs high-fat diet, P<0.05.

Regarding `Oc1ccc(/C=C/c2cc(O)cc(O)c2)cc1` [Resveratrol, 3,4′,5-trihydroxy-trans-stilbene], in the assay with C57BL/6 male mice (0.2% resveratrol in high-fat diet vs high-fat diet), the “Blood insulin level, group 3 compared with group 2 (in words)” value is given as “lower than that in group 2”. Moreover, the “Body weight, group 3 compared with group 2 (in words)” value with C57BL/6 male mice (0.2% resveratrol in high-fat diet vs high-fat diet, P<0.001) is reported as “significantly lower than that in group 2”. For the same molecule, in the assay with C57BL/6 male mice (setting [4]), the “Blood leptin level, group 3 compared with group 2 (in words)” value is reported as “significantly lower than that in group 2” and the “Visceral fat weight, group 3 compared with group 2 (in words)” value is recorded as “significantly lower than that in group 2”. Further, in the assay with C57BL/6 male mice (setting [5]), the “Liver weight, group 3 compared with group 2 (in words)” value was “significantly lower than that in group 2” and the “Total cholesterol level, group 3 compared with group 2 (in words)” value is reported as “significantly lower than that in group 2”. Besides, in the assay with C57BL/6 male mice (0.2% resveratrol in high-fat diet vs high-fat diet, P<0.1), the “Blood glucose level, group 3 compared with group 2 (in words)” value is reported as “lower than that in group 2”. In the assay on C57BL/6 male mice (Group 3: high-fat diet with 0.2% resveratrol, epididymal, retroperitoneal and perirenal fat, group 1 0.88, group 2 2.17), this molecule showed a Visceral fat weight of 1.00 g. The molecule also returned a Liver weight in the assay on C57BL/6 male mice (Group 3: high-fat diet with 0.2% resveratrol, group 1 1.34, group 2 1.62) of 1.39 g. Also, the Body weight in the assay on C57BL/6 male mice (Group 3: high-fat diet with 0.2% resveratrol, group 1 (low-fat) 32.2, group 2 (high-fat) 38.8) is recorded as 32.1 g. This molecule also had a Leptin in the assay on C57BL/6 male mice (Group 3: high-fat diet with 0.2% resveratrol, plasma, non-fasting, group 1 1.43, group 2 6.19) of 1.79 ng/mL. This molecule came in with an Insulin in the assay on C57BL/6 male mice (Group 3: high-fat diet with 0.2% resveratrol, plasma, non-fasting, group 1 2.52, group 2 3.38) of 2.03 ng/mL. The molecule also showed a Total cholesterol in the assay on C57BL/6 male mice (Group 3: high-fat diet with 0.2% resveratrol, plasma, non-fasting, group 1 58, group 2 76) of 60 mg/dL. In the assay on C57BL/6 male mice (Group 3: high-fat diet with 0.2% resveratrol, plasma, non-fasting, group 1 133, group 2 191), this molecule yielded a Glucose of 162 mg/dL. In addition, the “Phospho-AMPKα (degree of AMPK activation relative to control taken as 100)” value in assay [1] (resveratrol 150 μmol/L, 60 minutes, anti-phospho-AMPKα (Thr72) antibody, control = 100) was found to be 538. In assay [1] (resveratrol 150 μmol/L, 60 minutes, anti-phospho-AMPKβ (Ser108) antibody, control = 100), the “Phospho-AMPKβ (degree of AMPK activation relative to control taken as 100)” value is recorded as 168. Besides, the “AMPK activation effect (in words)” value in assay [1] (summary of Table 1) is “potent AMPK activation effect”. Also, the “Lipid degradation activity (β-oxidation activity) of skeletal muscle relative to control taken as 100” value in assay [2] (Balb/c male mice, resveratrol 200 mg/kg body weight orally for 10 consecutive days, gastrocnemius + soleus muscle homogenate, [14C]-palmitic acid, control = 100) amounted to 243. In addition, the “Lipid degradation activity (β-oxidation activity) of liver relative to control taken as 100” value in assay [2] (Balb/c male mice, resveratrol 200 mg/kg body weight orally for 10 consecutive days, liver homogenate, [14C]-palmitic acid, control = 100) is 323. In addition, the “Lipid degradation activity (β-oxidation activity) of the liver and skeletal muscle (in words)” value in assay [2] (resveratrol 200 mg/kg orally for 10 days vs saline control, liver p<0.001, muscle p<0.001) was “considerably increases”. The “Phospho-AMPKα (degree of AMPK activation relative to control taken as 100)” value in assay [3] (C2C12 cells, resveratrol 150 μmol/L, 60 minutes, anti-phospho-AMPKα (Thr72) antibody, control = 100) is 848. The “Phospho-AMPKβ (degree of AMPK activation relative to control taken as 100)” value in assay [3] (C2C12 cells, resveratrol 150 μmol/L, 60 minutes, anti-phospho-AMPKβ (Ser108) antibody, control = 100) is on record as 425. Further, the “AMPK activation effect in muscle cells (in words)” value in assay [3] (summary of Table 2) is on record as “potent AMPK activation effect”.
